Target: T1, IRAK4 (Homo sapiens, UniProt Q9NWZ3)
T1 construct: C-terminal HiBiT-tagged Jurkat cells (polyclonal cell line or clone 8D5); endogenous in cells; host or cells: Jurkat cells (polyclonal cell line or clone 8D5), HiBiT-tagged
T1 sequence (Q9NWZ3 1-460): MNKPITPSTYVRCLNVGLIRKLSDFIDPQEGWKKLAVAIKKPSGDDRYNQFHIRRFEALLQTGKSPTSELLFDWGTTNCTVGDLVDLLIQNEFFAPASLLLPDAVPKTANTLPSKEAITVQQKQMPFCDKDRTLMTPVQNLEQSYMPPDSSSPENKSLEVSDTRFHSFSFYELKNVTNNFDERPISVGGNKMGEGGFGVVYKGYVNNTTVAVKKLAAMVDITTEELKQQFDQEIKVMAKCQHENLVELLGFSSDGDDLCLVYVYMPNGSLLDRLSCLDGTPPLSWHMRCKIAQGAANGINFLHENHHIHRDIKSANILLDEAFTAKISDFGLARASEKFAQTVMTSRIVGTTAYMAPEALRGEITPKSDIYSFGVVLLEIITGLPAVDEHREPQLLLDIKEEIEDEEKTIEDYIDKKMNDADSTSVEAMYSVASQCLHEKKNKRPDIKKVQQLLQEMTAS
Assay: IRAK4 Degradation HiBit Assay
Format: cell-based
Settings: C-terminal HiBiT-tagged Jurkat cells, 4 hrs incubation; for DC50: % IRAK4 remaining, four-parameter fit (IC50 used as DC50); for Dmax: from fit of % IRAK4 remaining, read-out: Dmax
Procedure, shortened: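 Jurkat cells carrying C-terminal HiBiT-tagged IRAK4 (polyclonal or clone 8D5) exposed to compound, 10 μM–0.1 nM final over 11 points, for 4 h at 32 °C. Remaining IRAK4 measured by lytic HiBiT/LgBiT luminescence relative to DMSO. DC50 and Dmax taken from four-parameter variable-slope fits.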

DC50 | Dmax | Compound
10 nM | 112% | CNc1cc(-c2ccc3cc(C#N)cnn23)ncc1-c1nnc(N2CCN(C(=O)C3CCN(c4ccc(C5CCC(=O)NC5=O)cn4)CC3)CC2)s1 (racemic) [Example 51, 7-{5-[5-(4-{1-[5-(2,6-dioxopiperidin-3-yl)pyridin-2-yl]piperidine-4-carbonyl}piperazin-1-yl)-1,3,4-thiadiazol-2-yl]-4-(methylamino)pyridin-2-yl}pyrrolo[1,2-b]pyridazine-3-carbonitrile]
160 nM | 53% | N#Cc1cnn2c(-c3cc(NC4CCOCC4)c(-c4nnc(N5CCN(CC6CCN(c7ccc([C@@H]8CCC(=O)NC8=O)cn7)CC6)CC5)s4)cn3)ccc2c1 (single isomer, unassigned) [Example 31]
160 nM | 102% | CC(C)Nc1cc(-c2ccc3cc(C#N)cnn23)ncc1-c1nnc(N2CCN(CC3CCN(c4ccc(C5CCC(=O)NC5=O)cn4)CC3)CC2)s1 (racemic) [Example 56, rac-7-[5-(5-{4-[(1-{5-[(3R)-2,6-dioxopiperidin-3-yl]pyridin-2-yl}piperidin-4-yl)methyl]piperazin-1-yl}-1,3,4-thiadiazol-2-yl)-4-[(propan-2-yl)amino]pyridin-2-yl]pyrrolo[1,2-b]pyridazine-3-carbonitrile]
9 nM | 113% | N#Cc1cnn2c(-c3cc(N[C@@H]4CCOC4)c(-c4nnc(N5CCN(CC6CCN(c7ccc([C@@H]8CCC(=O)NC8=O)cn7)CC6)CC5)s4)cn3)ccc2c1 (single isomer, unassigned) [Example 127]
23 nM | 109% | CC(C)Nc1cc(-c2ccc3cc(C#N)cnn23)ncc1-c1nnc(N2CCN(C(=O)C3CCN(c4ccc(C5CCC(=O)NC5=O)cn4)CC3)CC2)s1 (racemic) [Example 48, rac-7-(5-{5-[4-(1-{5-[(3R)-2,6-dioxopiperidin-3-yl]pyridin-2-yl}piperidine-4-carbonyl)piperazin-1-yl]-1,3,4-thiadiazol-2-yl}-4-[(propan-2-yl)amino]pyridin-2-yl)pyrrolo[1,2-b]pyridazine-3-carbonitrile]
5 nM | 113% | C[C@H](C#N)Nc1cc(-c2ccc3cc(C#N)cnn23)ncc1-c1nnc(N2CCN(CC3CCN(c4ccc([C@@H]5CCC(=O)NC5=O)cn4)CC3)CC2)s1 (single isomer, unassigned) [Example 129]
30 nM | 111% | N#Cc1cnn2c(-c3cc(NC4CC4)c(-c4nnc(N5CCN(CC6CCN(c7ccc([C@@H]8CCC(=O)NC8=O)cn7)CC6)CC5)s4)cn3)ccc2c1 (single isomer, unassigned) [Example 119]

Further lines, the compound ahead of its results:

Compound | DC50 | Dmax
N#Cc1cnn2c(-c3cc(NC4CCC4)c(-c4nnc(N5CC6CCC(C5)N6CC5CCN(c6ccc([C@H]7CCC(=O)NC7=O)cn6)CC5)s4)cn3)ccc2c1 (racemic) [Example 96, rac-7-[4-(cyclobutylamino)-5-(5-{8-[(1-{5-[(3R)-2,6-dioxopiperidin-3-yl]pyridin-2-yl}piperidin-4-yl)methyl]-3,8-diazabicyclo[3.2.1]octan-3-yl}-1,3,4-thiadiazol-2-yl)pyridin-2-yl]pyrrolo[1,2-b]pyridazine-3-carbonitrile] | 83 nM | 103%
CC(C)Nc1cc(-c2ccc3cc(C#N)cnn23)ncc1-c1nnc(N2CC3CCC(C2)N3CC2CCN(c3ccc([C@H]4CCC(=O)NC4=O)cn3)CC2)s1 (racemic) [Example 2, rac-7-[5-(5-{8-[(1-{5-[(3R)-2,6-dioxopiperidin-3-yl]pyridin-2-yl}piperidin-4-yl)methyl]-3,8-diazabicyclo[3.2.1]octan-3-yl}-1,3,4-thiadiazol-2-yl)-4-[(propan-2-yl)amino]pyridin-2-yl]pyrrolo[1,2-b]pyridazine-3-carbonitrile] | 53 nM | 67%
N#Cc1cnn2c(-c3cc(NC4CC4)c(-c4nnc(N5CC6CCC(C5)N6CC5CCN(c6ccc(N7CCC(=O)NC7=O)cn6)CC5)s4)cn3)ccc2c1 [Example 115, 7-[4-(cyclopropylamino)-5-{5-[8-({1-[5-(2,4-dioxo-1,3-diazinan-1-yl)pyridin-2-yl]piperidin-4-yl}methyl)-3,8-diazabicyclo[3.2.1]octan-3-yl]-1,3,4-thiadiazol-2-yl}pyridin-2-yl]pyrrolo[1,2-b]pyridazine-3-carbonitrile] | 48 nM | 109%
N#Cc1cnn2c(-c3cc(NC4CCOCC4)c(-c4nnc(N5CCN(CC6CCN(c7ccc(C8CCC(=O)NC8=O)nc7)CC6)CC5)s4)cn3)ccc2c1 (racemic) [Example 106, rac-7-[5-(5-{4-[(1-{6-[(3R)-2,6-dioxopiperidin-3-yl]pyridin-3-yl}piperidin-4-yl)methyl]piperazin-1-yl}-1,3,4-thiadiazol-2-yl)-4-[(oxan-4-yl)amino]pyridin-2-yl]pyrrolo[1,2-b]pyridazine-3-carbonitrile] | 21 nM | 99%
CNc1cc(-c2ccc3cc(C#N)cnn23)ncc1-c1nnc([C@H]2CC[C@H](CN3CCN(c4ccc([C@@H]5CCC(=O)NC5=O)cn4)CC3)CC2)s1 (racemic) [Example 44, 7-[4-(methylamino)-5-{5-[(1r,4r)-4-[(4-{5-[(3RS)-2,6-dioxopiperidin-3-yl]pyridin-2-yl}piperazin-1-yl)methyl]cyclohexyl]-1,3,4-thiadiazol-2-yl}pyridin-2-yl]pyrrolo[1,2-b]pyridazine-3-carbonitrile] | 12 nM | 114%
N#Cc1cnn2c(-c3cc(NC4CCOCC4)c(-c4nnc(N5CCN(C(=O)CN6CCc7cc(C8CCC(=O)NC8=O)ccc7C6)CC5)s4)cn3)ccc2c1 (racemic) [Example 66, rac-7-(5-{5-[4-(2-{6-[(3R)-2,6-dioxopiperidin-3-yl]-1,2,3,4-tetrahydroisoquinolin-2-yl}acetyl)piperazin-1-yl]-1,3,4-thiadiazol-2-yl}-4-[(oxan-4-yl)amino]pyridin-2-yl)pyrrolo[1,2-b]pyridazine-3-carbonitrile] | 8 nM | 110%
C[C@H](C#N)Nc1cc(-c2ccc3cc(C#N)cnn23)ncc1-c1nnc(N2CC3CCC(C2)N3CC2CCN(c3ccc([C@@H]4CCC(=O)NC4=O)cn3)CC2)s1 (single isomer, unassigned) [Example 135] | 5 nM | 108%
N#Cc1cnn2c(-c3cc(NC4CCOCC4)c(-c4nnc(N5CCN(C(=O)CC6CCN(c7ccc(C8CCC(=O)NC8=O)cn7)CC6)CC5)s4)cn3)ccc2c1 (racemic) [Example 18, rac-7-[5-(5-{4-[2-(1-{5-[(3R)-2,6-dioxopiperidin-3-yl]pyridin-2-yl}piperidin-4-yl)acetyl]piperazin-1-yl}-1,3,4-thiadiazol-2-yl)-4-[(oxan-4-yl)amino]pyridin-2-yl]pyrrolo[1,2-b]pyridazine-3-carbonitrile] | 12 nM | 103%
CCNc1cc(-c2ccc3cc(C#N)cnn23)ncc1-c1nnc(N2CC3CCC(C2)N3CC2CCN(c3ccc([C@H]4CCC(=O)NC4=O)cc3)CC2)s1 (racemic) [Example 102, rac-7-[5-(5-{8-[(1-{4-[(3R)-2,6-dioxopiperidin-3-yl]phenyl}piperidin-4-yl)methyl]-3,8-diazabicyclo[3.2.1]octan-3-yl}-1,3,4-thiadiazol-2-yl)-4-(ethylamino)pyridin-2-yl]pyrrolo[1,2-b]pyridazine-3-carbonitrile] | 42 nM | 107%
N#Cc1cnn2c(-c3cc(NC4CCOCC4)c(-c4nnc(N5CCN(CCC6CCN(c7ccc(C8CCC(=O)NC8=O)cn7)CC6)CC5)s4)cn3)ccc2c1 (racemic) [Example 14, rac-7-[5-(5-{4-[2-(1-{5-[(3R)-2,6-dioxopiperidin-3-yl]pyridin-2-yl}piperidin-4-yl)ethyl]piperazin-1-yl}-1,3,4-thiadiazol-2-yl)-4-[(oxan-4-yl)amino]pyridin-2-yl]pyrrolo[1,2-b]pyridazine-3-carbonitrile] | 70 nM | 81%
N#Cc1cnn2c(-c3cc(NC4CCOCC4)c(-c4nnc(N5CCN(CC6CCN(c7ccc(N8CCC(=O)NC8=O)c(F)c7)CC6)CC5)s4)cn3)ccc2c1 [Example 8, 7-(5-{5-[4-({1-[4-(2,4-dioxo-1,3-diazinan-1-yl)-3-fluorophenyl]piperidin-4-yl}methyl)piperazin-1-yl]-1,3,4-thiadiazol-2-yl}-4-[(oxan-4-yl)amino]pyridin-2-yl)pyrrolo[1,2-b]pyridazine-3-carbonitrile] | 29 nM | 110%
N#Cc1cnn2c(-c3cc(NC4CCOCC4)c(-c4nnc(N5CC6CCC(C5)N6CC5CCN(c6ccc([C@H]7CCC(=O)NC7=O)cn6)CC5)s4)cn3)ccc2c1 (single isomer, unassigned) [Example 112] | 33 nM | 92%
N#Cc1cnn2c(-c3cc(NC4(C#N)CC4)c(-c4nnc(N5CC6CCC(C5)N6CC5CCN(c6ccc([C@H]7CCC(=O)NC7=O)cn6)CC5)s4)cn3)ccc2c1 (racemic) [Example 103, rac-7-{4-[(1-cyanocyclopropyl)amino]-5-(5-{8-[(1-{5-[(3R)-2,6-dioxopiperidin-3-yl]pyridin-2-yl}piperidin-4-yl)methyl]-3,8-diazabicyclo[3.2.1]octan-3-yl}-1,3,4-thiadiazol-2-yl)pyridin-2-yl}pyrrolo[1,2-b]pyridazine-3-carbonitrile] | 12 nM | 106%

From US12570662B2, “Substituted pyrrolo[1,2-b]pyridazines as bifunctional degraders of interleukin-1 receptor-associated kinases” (Nurix Therapeutics, Inc., priority 2021, dated 2026)
